Test results taken from article PMC10108266, “Pharmacokinetic characteristics of golidocitinib, a highly selective JAK1 inhibitor, in healthy adult participants” (Frontiers in Immunology, 2023).
Where two headings read alike, the source gives them in different places.

Columns and labels:
[1] = JACKPOT2 single-ascending-dose plasma PK, healthy participants in USA; type: in vivo, human; settings: for Cmax / Tmax / AUC(0-inf) / Vd/F / half-life: human, plasma; for Cmax / AUC(0-inf): geometric mean (CV%)
Source text: This was a Phase I, randomized, double-blinded, placebo-controlled study to assess the safety, tolerability, and PK of golidocitinib in healthy participants in the USA. This study included two parts: part A (single-ascending-dose [SAD] and food effect [FE] cohorts) and part B (multiple-ascending-dose [MAD] cohorts). Please refer to Figure 1 for the study flowchart.
A total of 42 and 24 healthy participants were enrolled in part A and part B, respectively. In part A, a total of 30 participants were randomized into 5 SAD cohorts (n = 6 per cohort) and received a single dose of golidocitinib at different dose levels or a matching placebo in a 4:2 ratio. In the food effect cohort, a total of 12 participants were enrolled and received the study drug under fasted or fed conditions, with a sequential design. The 50 mg dose was selected based on available safety data after the completion of the SAD cohorts, and also on the outcomes from PK/PD modeling for potential efficacious dose for autoimmune disease. On Day 1, participants took a single dose of golidocitinib under fast condition. After a 14-day wash-out period, on Day 15, participants received another single dose of golidocitinib immediately after a standard high-fat meal. Food recipes and contents are consistent with that described in FDA Guidance for Food-Effect Bioavailability studies ([10]). For the fed condition, keeping fasted for at least 10 hours, participants started ingestion of high-fat meal 30 minutes prior to administration of golidocitinib. They had to finish the meal within 30 minutes or less, and no food was allowed for at least 4 hours post-dose. In part B, a total of 24 participants were randomized into 3 MAD cohorts, with 8 in each cohort (active:placebo = 6:2). In these cohorts, participants received golidocitinib at different dose levels or placebo once daily dosing for 14 days. Dose escalation was based on available PK and safety data in the previous cohorts.
(§1) In the SAD cohorts, serial blood samples were obtained on Day 1 at pre-dose, and at 0.5, 1, 1.5, 2, 3, 4, 6, 10, 14, 24 (Day 2), 48 (Day 3), 72 (Day 4), 120 (Day 6), 168 (Day 8) and 216 (Day 10) hours post-dose for plasma PK analysis. A similar sampling schedule was undertaken for the MAD cohorts on Day 1 and Day 14, with additional trough samples obtained on Days 5, Day 8, and Day 11. In the MAD cohorts, urine samples were collected on Day 14 during the collection intervals of 0-4, 4-10, and 10-24 hours following the last dose for urine PK analysis. Plasma and urine samples were analyzed by Frontage Laboratories Inc. (New Jersey, USA) using a validated LC/MS/MS bioanalytical method to determine golidocitinib concentrations. Cross validation in plasma was successful between Frontage Laboratories Inc. (New Jersey, USA) and Frontage Laboratories Inc. (Shanghai) using clinical samples and spiked quality control samples.
Non-compartmental PK analysis for golidocitinib concentrations was performed using Phoenix WinNonlin (Certara USA Inc., version 8.1).
Dose proportionality was concluded if the 90% confidence interval for the ratio of dose-normalized, geometric mean values (Rdnm) was contained completely within the range of 0.8 - 1.25 ([11], [12]).

[2] = JACKPOT2 MAD urinary PK (Day 14); type: in vivo, human; settings: for CLtotal: CL/F * F (0.7 from PBPK model); for Fe0-t: CLr/CLtotal; for Ae0-t: urine 0-24 hour on Day 14; for CL renal: human, oral
Source text: as §1
The mean (SD) amount of golidocitinib excreted in the urine over the collection period and renal clearance are presented in Table 2B . The average amount of golidocitinib excreted in the urine increased in an approximately dose proportional manner from 25 mg to 100 mg. […] The renal excretion fraction (Fe0-t) is helpful to compare the renal clearance (CLr) with total clearance (CLtotal) and determine the contribution of renal clearance in the drug elimination. It was calculated by the equation Fe0-t = CLr/CLtotal. The CL/F values were obtained from the two Phase I studies after the oral administration. Since the pharmacokinetics of golidocitinib after intravenous injection was not studied, the bioavailability value (F) was calculated by physiologically based pharmacokinetic (PBPK) model that incorporated compound specific information and independent prior knowledge on the physiology and biology at the organism.

[3] = biological target: P-glycoprotein (P-gp) (Homo sapiens, UniProt P08183); test: In vitro P-gp substrate experiments; type: in vitro ADME; settings: active transport saturable at high concentrations
Sequence of P-glycoprotein (P-gp) (P08183 whole entry): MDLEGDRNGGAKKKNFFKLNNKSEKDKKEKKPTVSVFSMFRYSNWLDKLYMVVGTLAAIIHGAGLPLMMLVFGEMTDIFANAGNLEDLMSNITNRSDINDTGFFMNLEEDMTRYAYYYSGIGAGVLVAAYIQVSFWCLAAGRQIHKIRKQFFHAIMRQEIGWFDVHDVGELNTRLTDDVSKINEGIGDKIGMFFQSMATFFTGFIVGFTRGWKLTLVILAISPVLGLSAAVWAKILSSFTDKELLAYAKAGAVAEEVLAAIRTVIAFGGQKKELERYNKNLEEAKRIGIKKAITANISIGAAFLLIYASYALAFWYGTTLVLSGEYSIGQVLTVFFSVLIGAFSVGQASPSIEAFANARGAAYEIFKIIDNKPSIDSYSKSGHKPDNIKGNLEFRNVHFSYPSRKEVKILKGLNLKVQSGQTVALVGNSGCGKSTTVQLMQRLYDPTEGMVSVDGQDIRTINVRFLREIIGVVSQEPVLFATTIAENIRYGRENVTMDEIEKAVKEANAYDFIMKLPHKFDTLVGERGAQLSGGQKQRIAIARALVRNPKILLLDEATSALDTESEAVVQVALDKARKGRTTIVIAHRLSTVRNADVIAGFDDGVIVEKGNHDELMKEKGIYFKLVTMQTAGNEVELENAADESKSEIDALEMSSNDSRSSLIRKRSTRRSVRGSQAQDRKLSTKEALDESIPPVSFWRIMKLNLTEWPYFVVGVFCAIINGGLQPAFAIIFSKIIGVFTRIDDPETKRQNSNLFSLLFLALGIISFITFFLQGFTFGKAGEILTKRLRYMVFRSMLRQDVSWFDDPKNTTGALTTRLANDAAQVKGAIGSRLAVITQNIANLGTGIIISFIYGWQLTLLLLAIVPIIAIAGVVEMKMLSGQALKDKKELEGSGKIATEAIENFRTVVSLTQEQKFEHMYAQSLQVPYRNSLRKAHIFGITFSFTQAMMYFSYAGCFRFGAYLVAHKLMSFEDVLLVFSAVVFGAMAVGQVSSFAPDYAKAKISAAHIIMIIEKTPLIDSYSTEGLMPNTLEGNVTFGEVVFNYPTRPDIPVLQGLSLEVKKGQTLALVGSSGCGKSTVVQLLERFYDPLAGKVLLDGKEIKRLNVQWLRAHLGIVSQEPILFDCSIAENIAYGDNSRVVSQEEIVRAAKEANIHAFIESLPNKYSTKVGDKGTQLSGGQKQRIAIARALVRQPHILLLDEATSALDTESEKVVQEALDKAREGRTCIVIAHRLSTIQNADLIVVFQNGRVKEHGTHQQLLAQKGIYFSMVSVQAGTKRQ

[4] = Overall safety and tolerability, JACKPOT2 and JACKPOT3; type: in vivo, human
Source text: Safety assessments included monitoring of adverse events/serious adverse events, clinical safety laboratory tests (clinical chemistry, hematology, coagulation, and urinalysis tests), 12-lead ECG, vital signs (blood pressure, pulse rate, and respiratory rate), and pulmonary function. All adverse events were coded using the Medical Dictionary for Regulatory Activities (MedDRA), version 22.0. The CTCAE 5.0 was used to define the intensity of AEs.
The safety monitoring for both JACKPOT2 and JACKPOT3 was similar, included monitoring of adverse events/serious adverse events, clinical safety laboratory tests (clinical chemistry, hematology, coagulation, and urinalysis tests), 12-lead ECG, vital signs (blood pressure, pulse rate, and respiratory rate), and pulmonary function.

SMILES: COc1nn(C)cc1Nc1nccc(-c2c[nH]c3c(NC(=O)[C@@H](C)N4CCN(C)CC4)cccc23)n1 [golidocitinib, (2R)-N-[3-[2-[(3-Methoxy-1-methyl-pyrazol-4-yl)amino]pyrimidin-4-yl]-1H-indol-7-yl]-2-(4-methylpiperazin-1-yl)propenamide]
- Cmax ([1]; oral, single dose 5 mg): 5.14 ng/mL
- Tmax ([1]; oral, single dose 5 mg, median (min, max), read-out: tmax): 8 h
- AUC(0-inf) ([1]; oral, single dose 20 mg): 923 ng·h/mL
- Cmax ([1]; oral, single dose 20 mg): 18.6 ng/mL
- Vd/F ([1]; oral, single dose 20 mg, mean (SD), read-out: Vz/F): 1540 L
- half-life ([1]; oral, single dose 20 mg, median (min, max), read-out: t1/2 (converted)): 51.3 h
- Tmax ([1]; oral, single dose 20 mg, median (min, max), read-out: tmax): 8 h
- AUC(0-inf) ([1]; oral, single dose 50 mg): 2340 ng·h/mL
- Cmax ([1]; oral, single dose 50 mg): 48.5 ng/mL
- Vd/F ([1]; oral, single dose 50 mg, mean (SD), read-out: Vz/F): 1420 L
- half-life ([1]; oral, single dose 50 mg, median (min, max), read-out: t1/2 (converted)): 42.8 h
- Tmax ([1]; oral, single dose 50 mg, median (min, max), read-out: tmax): 6 h
- AUC(0-inf) ([1]; oral, single dose 100 mg): 5260 ng·h/mL
- Cmax ([1]; oral, single dose 100 mg): 133 ng/mL
- Vd/F ([1]; oral, single dose 100 mg, mean (SD), read-out: Vz/F): 1380 L
- half-life ([1]; oral, single dose 100 mg, median (min, max), read-out: t1/2 (converted)): 50.4 h
- Tmax ([1]; oral, single dose 100 mg, median (min, max), read-out: tmax): 2.5 h
- AUC(0-inf) ([1]; oral, single dose 150 mg): 7260 ng·h/mL
- Cmax ([1]; oral, single dose 150 mg): 232 ng/mL
- Vd/F ([1]; oral, single dose 150 mg, mean (SD), read-out: Vz/F): 1400 L
- half-life ([1]; oral, single dose 150 mg, median (min, max), read-out: t1/2 (converted)): 46.6 h
- Tmax ([1]; oral, single dose 150 mg, median (min, max), read-out: tmax): 3 h
- Vd/F ([1]; single oral administration, US participants, read-out: mean Vz/F): 1380 to 1540 L
- half-life ([1]; single oral administration, across the dose range, US participants, read-out: median terminal half-life (t1/2)): 42.8 to 51.3 h
- Tmax ([1]; single oral administration, across the dose range, US participants, read-out: median tmax): 2.5 to 8 h
- CL/F ([1]; single dose 20 mg, mean (SD)): 21.7 (1.18) L/hr
- CL/F ([1]; single dose 50 mg, mean (SD)): 22.1 (6.20) L/hr
- CL/F ([1]; single dose 100 mg, mean (SD)): 19.2 (3.09) L/hr
- CL/F ([1]; single dose 150 mg, mean (SD)): 21.9 (8.58) L/hr
- CLtotal ([2]; 25 mg once daily 14 days): 15.2 L/h
- Fe0-t ([2]; 25 mg once daily 14 days): 20.9%
- Ae0-t ([2]; 25 mg once daily 14 days, mean (SD)): 4.94 (1.23) mg
- CLtotal ([2]; 50 mg once daily 14 days): 15.5 L/h
- Fe0-t ([2]; 50 mg once daily 14 days): 23.9%
- Ae0-t ([2]; 50 mg once daily 14 days, mean (SD)): 11.7 (1.69) mg
- CLtotal ([2]; 100 mg once daily 14 days): 13.4 L/h
- Fe0-t ([2]; 100 mg once daily 14 days): 20.2%
- Ae0-t ([2]; 100 mg once daily 14 days, mean (SD)): 19.2 (4.11) mg
- CL renal ([2]; urine and plasma, 25 mg once daily 14 days, Ae0-t/AUC0-t, mean (SD), read-out: CLr (converted)): 53 mL/min
- CL renal ([2]; urine and plasma, 50 mg once daily 14 days, Ae0-t/AUC0-t, mean (SD), read-out: CLr (converted)): 61.5 mL/min
- CL renal ([2]; urine and plasma, 100 mg once daily 14 days, Ae0-t/AUC0-t, mean (SD), read-out: CLr (converted)): 45.2 mL/min
- CL renal ([2]; urine, US participants, 25 mg to 100 mg, read-out: mean renal clearance): 45.2 to 61.5 mL/min
- P-gp substrate status [3]: P-glycoprotein (P-gp) substrate
- tolerability ([4]; healthy participants, 5 mg to 150 mg single dose, 25 mg to 100 mg multiple dose): well-tolerated
- serious adverse events ([4]; in vivo): No serious adverse events were reported
- CTCAE grade 3 or higher drug-related TEAE ([4]; investigators' assessment): no CTCAE grade 3 or higher drug-related TEAE was reported
